Molecules are shown by their SMILES.

recombinant sEH (soluble epoxide hydrolase, EPHX2), sequence (P34913 whole entry): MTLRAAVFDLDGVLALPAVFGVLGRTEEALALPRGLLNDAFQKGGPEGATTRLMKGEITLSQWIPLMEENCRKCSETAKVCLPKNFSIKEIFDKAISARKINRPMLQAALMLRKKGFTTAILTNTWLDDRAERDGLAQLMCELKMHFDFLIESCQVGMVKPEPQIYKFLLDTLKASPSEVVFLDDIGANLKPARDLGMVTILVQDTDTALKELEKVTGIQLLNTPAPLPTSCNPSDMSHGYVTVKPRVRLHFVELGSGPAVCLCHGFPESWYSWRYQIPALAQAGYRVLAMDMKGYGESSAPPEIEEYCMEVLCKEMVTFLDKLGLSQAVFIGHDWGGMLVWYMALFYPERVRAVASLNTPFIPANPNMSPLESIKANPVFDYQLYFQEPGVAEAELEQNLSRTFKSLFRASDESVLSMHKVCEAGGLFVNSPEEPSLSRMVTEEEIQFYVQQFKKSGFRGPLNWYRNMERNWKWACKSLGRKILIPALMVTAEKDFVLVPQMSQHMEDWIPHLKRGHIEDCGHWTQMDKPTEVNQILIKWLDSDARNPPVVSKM

This test concerns the target recombinant sEH (soluble epoxide hydrolase, EPHX2) (Homo sapiens (Human), UniProt P34913). Description: biochemical fluorometric sEH inhibition assay with Phome substrate. The conditions noted are these: recombinant sEH purified from Sf9 insect cells, 2 nM sEH, 5 μM Phome, 60 minutes at 30° C. On the procedure:
Compounds were tested in a biochemical screening assay using recombinant sEH purified from Sf9 insect cells and an artificial substrate, (3-phenyl-oxiranyl)-acetic acid cyano-(6-methoxy-naphtalen-2-yl)-methyl ester, Phome. The biochemical assay was performed in analogy to a fluorometric described in the literature (P. D. Jones et al., Anal. Biochem. 2005, 343, 66-75). The assay principle bases on the sEH-catalyzed hydrolysis of an artificial α-cyano-ester substrate. O-deacetylation liberates a cyanohydrin intermediate that rapidly decomposes to the highly fluorescent 6-methoxy-2-naphtaldehyde. To discriminate sample autofluorescence, the assay was carried out as a kinetic measurement with two time points. The first measurement is performed immediately before addition of the substrate and the […] measurement is done after completion of the assay. The assay format is either in 96- or in 384-well format.
Details of the assay using a 96-well plate format are described below. 40 μl recombinant sEH enzyme and 5 μl test compound are pre-incubated for 15 minutes at 30° C. Following pre-incubation, the reaction is started by addition of 5 μl Phome. The assay mixture containing 2 nM final sEH concentration, test compound ranging in a concentration from 0.0001-10 μM and 5 μM Phome is incubated for 60 minutes at 30° C.
Fluorescence is measured with any suitable detector for instance a TECAN Safire or Tecan Ultra at […]. % inhibition of recombinant sEH activity is used for calculation of corresponding IC50 values as illustrated and described in the examples.
The NCBI gene bank reference sequence with the accession number NM_001979 for EPHX2/sEH was applied for recombinant protein production:
The following commercially available materials have been used: • Incubation reagent: 25 mM Hepes (Sigma-Aldrich, Cat. No H-3375), 0.01% bovine albumin (Sigma-Aldrich Cat. No PA9205) • Substrate: 3-Phenyl-oxiranyl)-acetic acid cyano-(6-methoxy-naphtalen-2-yl)-methyl ester, Phome (Biozol Cat. No 10003134) • Microtiter plates: 96-well plates (Greiner Cat. No 655180; Costar Cat. No 3915)
What is called IC50 is the concentration that gives 50% inhibition. With `CCc1oncc1C(=O)N1CCN(Cc2ccc(C(=O)NCc3ccccc3C(F)(F)F)s2)CC1` [Example 117], the IC50 was 1.64 nM.

Turning to `O=C(NCc1ccccc1OC(F)(F)F)c1ccc(CN2CCN(C(=O)CCO)CC2)s1` [Example 106], the IC50 is 2.18 nM.

In the case of `COc1ccc(CNC(=O)c2ccc(CN3CCN(C(=O)C(C)O)CC3)s2)c(OC(F)(F)F)c1` (stereo not drawn) [Example 32], the half-inhibitory concentration (IC50) was 0.756 nM.

In the case of `CO[C@H](C)C(=O)N1CCN(Cc2ccc(C(=O)NCc3ccccc3OC(F)(F)F)s2)CC1` [Example 93], the IC50 was 1.31 nM.

Consider `Cc1cc(=O)oc(C)c1C(=O)N1CCN(Cc2ccc(C(=O)NCc3ccccc3OC(F)(F)F)s2)CC1` [Example 35], for which the IC50 was found to be 0.916 nM.

Regarding `COc1cccnc1C(=O)N1CCN(Cc2ncc(C(=O)NCc3ccc(Cl)cc3Cl)s2)CC1` [Example 196], the IC50 worked out at 36.4 nM.

As to `CCCn1nccc1CNC(=O)c1ccc(CN2CCN(C(=O)c3c(C)cc(=O)oc3C)CC2)s1` [Example 78], the IC50 came to 2.54 nM.

On to `NC1(C(=O)N2CCN(Cc3ncc(C(=O)NCc4ccc(Cl)cc4Cl)s3)CC2)CC1` [Example 200], for which the IC50 stood at 2.57 nM.

As for `COc1cc(CNC(=O)c2ccc(CN3CCN(C(=O)[C@H](O)C(C)C)CC3)s2)ccn1` [Example 30, 5-[4-((R)-2-Hydroxy-3-methyl-butyryl)-piperazin-1-ylmethyl]-thiophene-2-carboxylic acid (2-methoxy-pyridin-4-ylmethyl)-amide], the IC50 was 0.803 nM.

Regarding `CCOc1ccccc1C(=O)N1CCN(Cc2ccc(C(=O)NCCC(C)C)s2)CC1` [Example 118], the IC50 is 1.72 nM.

As to `COCc1cc(O)nc(N2CCN(Cc3ccc(C(=O)NCc4ccccc4OC(F)(F)F)s3)CC2)n1` [Example 158], the IC50 was found to be 2.04 nM.

On to `COc1ccc(CNC(=O)c2ccc(CN3CCN(c4nccn4C)CC3)s2)c(OC(F)(F)F)c1` [Example 113], for which the IC50 worked out at 1.67 nM.

For the compound `COc1cc(CNC(=O)c2ccc(CN3CCN(C(=O)c4nc(F)ccc4F)CC3)s2)ccn1` [Example 149, 5-[4-(3,6-Difluoro-pyridine-2-carbonyl)-piperazin-1-ylmethyl]-thiophene-2-carboxylic acid (2-methoxy-pyridin-4-ylmethyl)-amide], the IC50 is 8.2 nM.

In the case of `Cc1noc(C)c1C(=O)N1CCN(Cc2ncc(C(=O)NCc3ccc(Cl)cc3Cl)s2)CC1` [Example 160], the IC50 came out at 1.41 nM.

On to `NC1(C(=O)N2CCN(Cc3ccc(C(=O)NCc4ccc(Cl)cc4Cl)s3)CC2)CC1` [Example 109], for which the IC50 was 2.16 nM.

For the compound `Cc1ccc(O)c(C(=O)N2CCN(Cc3ccc(C(=O)NCc4ccccc4OC(F)(F)F)s3)CC2)n1` [Example 79], the IC50 was determined as 2.54 nM.

As to `CCC(C)(O)C(=O)N1CCN(Cc2ncc(C(=O)NCc3ccc(Cl)cc3Cl)s2)CC1` (stereo not drawn) [Example 167], the IC50 came out at 12.2 nM.

Take `O=C(NCc1ccccc1C(F)(F)F)c1ccc(CN2CCN(C(=O)c3ccccc3F)CC2)s1` [Example 119]: the IC50 was 1.68 nM.

Consider `O=C(NCc1ccccc1C(F)(F)F)c1ccc(CN2CCN(C(=O)c3cscc3Br)CC2)s1` [Example 18], for which the IC50 is 0.678 nM.

Take `O=C(NCc1ccccc1C(F)(F)F)c1ccc(CN2CCN(C(=O)c3ccc4nccn4c3)CC2)s1` [Example 15]: the IC50 worked out at 0.604 nM.

As to `Cn1cccc1C(=O)N1CCN(Cc2ccc(C(=O)NCc3ccccc3C(F)(F)F)s2)CC1` [Example 51], the IC50 worked out at 0.994 nM.

Take `O=C(NCc1ccc(Cl)cc1Cl)c1cnc(CN2CCN(C(=O)c3ccc[nH]c3=O)CC2)s1` [Example 178]: the IC50 was found to be 58.6 nM.

As to `CC(O)CC(=O)N1CCN(Cc2ccc(C(=O)NCc3ccccc3OC(F)(F)F)s2)CC1` (stereo not drawn) [Example 92], the IC50 stood at 1.39 nM.

For `O=C(NCc1ccccc1C(F)(F)F)c1ccc(CN2CCN(C(=O)c3c(Cl)cccc3Cl)CC2)s1` [Example 81], the IC50 was determined as 2.36 nM.

Regarding `O=C(NCc1ccc(Cl)cc1Cl)c1cnc(CN2CCN(C(=O)c3cccc(O)n3)CC2)s1` [Example 175], the IC50 is 20.4 nM.

As for `Cc1cnc(C)c(N2CCN(Cc3ccc(C(=O)NCc4ccccc4OC(F)(F)F)s3)CC2)n1` [Example 26], the IC50 is 2.75 nM.

For the compound `O=C(NCc1ccccc1C(F)(F)F)c1ccc(CN2CCN(C(=O)c3cccnc3)CC2)s1` [Example 4], the half-inhibitory concentration (IC50) was found to be 0.168 nM.

For the compound `COc1ncccc1C(=O)N1CCN(Cc2ccc(C(=O)NCc3ccccc3C(F)(F)F)s2)CC1` [Example 57], the IC50 is 1.13 nM.

Take `Cc1cccc(C(=O)N2CCN(Cc3ccc(C(=O)NCc4ccccc4OC(F)(F)F)s3)CC2)n1` [Example 72]: the IC50 worked out at 2.59 nM.

`CC(C(=O)N1CCN(Cc2ccc(C(=O)NCc3ccc(Cl)cc3Cl)s2)CC1)c1ccccc1` (stereo not drawn) [Example 63]: the IC50 was determined as 1.21 nM.

Turning to `O=C(NCc1ccccc1OC(F)(F)F)c1ccc(CN2CCN(C(=O)C3(O)CC3)CC2)s1` [Example 37], the IC50 amounted to 0.929 nM.

`O=C(NCc1ccccc1OC(F)(F)F)c1ccc(CN2CCN(C(=O)C3CC3)CC2)s1` [Example 141]: the IC50 stood at 1.86 nM.

`O=C(NCc1ccc(Cl)cc1Cl)c1ccc(CN2CCN(C(=O)c3cnn4ccccc34)CC2)s1` [Example 8]: the IC50 was 0.512 nM.

`CC(C)(O)CC(=O)N1CCN(Cc2ccc(C(=O)NCc3ccccc3OC(F)(F)F)s2)CC1` [Example 128]: the IC50 turned out to be 1.73 nM.

Take `COc1cc(CNC(=O)c2ccc(CN3CCN(C(=O)c4c(C)cc(=O)oc4C)CC3)s2)ccn1` [Example 34]: the IC50 amounted to 0.906 nM.

Take `O=C(NCc1ccccc1OC(F)(F)F)c1ccc(CN2CCN(C(=O)CN3CCOC3=O)CC2)s1` [Example 156]: the IC50 was 2 nM.

In the case of `COCCC(=O)N1CCN(Cc2ccc(C(=O)NCc3ccccc3OC(F)(F)F)s2)CC1` [Example 116], the half-maximal inhibitory concentration (IC50) is 1.6 nM.

As to `CN1CCC(C(=O)N2CCN(Cc3ncc(C(=O)NCc4ccc(Cl)cc4Cl)s3)CC2)CC1` [Example 190], the 50% inhibitory concentration (IC50) is over 1000 nM.

For `Cc1c(C(=O)N2CCN(Cc3ccc(C(=O)NCCC(C)C)s3)CC2)oc2ccc(Br)cc12` [Example 12], the IC50 turned out to be 25.4 nM.

On to `CN(C)CCC(=O)N1CCN(Cc2ncc(C(=O)NCc3ccc(Cl)cc3Cl)s2)CC1` [Example 199], for which the IC50 was determined as 208 nM.

As to `O=C(NCc1ccc(Cl)cc1Cl)c1cnc(CN2CCN(C(=O)c3nc(F)ccc3F)CC2)s1` [Example 180], the IC50 stood at 8.46 nM.

With `O=C1NCC(C(=O)N2CCN(Cc3ncc(C(=O)NCc4ccc(Cl)cc4Cl)s3)CC2)N1` (stereo not drawn) [Example 203], the IC50 worked out at 36.3 nM.

Take `CNC(=O)c1cccnc1N1CCN(Cc2ccc(C(=O)NCc3ccccc3OC(F)(F)F)s2)CC1` [Example 135]: the IC50 was determined as 2.14 nM.

As for `O=C(NCc1ccccc1OC(F)(F)F)c1ccc(CN2CCN(C(=O)c3cccc(O)n3)CC2)s1` [Example 132], the IC50 came to 2.09 nM.

Take `Cc1cc(=O)oc(C)c1C(=O)N1CCN(Cc2ccc(C(=O)NCc3ccc(Cl)cc3Cl)s2)CC1` [Example 59]: the IC50 was 1.15 nM.

Turning to `O=C(NCc1ccccc1OC(F)(F)F)c1ccc(CN2CCN(CC(F)(F)F)C(=O)C2)s1` [Example 111], the IC50 turned out to be 2.23 nM.

Consider `COCc1cc(O)nc(N2CCN(Cc3ccc(C(=O)NCc4ccc(Cl)cc4Cl)s3)CC2)n1` [Example 21], for which the IC50 is 2.9 nM.

For `CCc1oncc1C(=O)N1CCN(Cc2ccc(C(=O)NCc3ccc(Cl)cc3Cl)s2)CC1` [Example 90], the IC50 was found to be 1.43 nM.

These data come from patent US9776991B2, “Thienomethylpiperazine derivatives as inhibitors of soluble epoxide hydrolase” (SANOFI, priority 2013, dated 2017).
